Source: ChEMBL document CHEMBL1201862, “PubChem BioAssay data set” (2004)
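Grown in 96-well plates, cells were treated for 48 hours with each compound at five concentrations. Insufficient inhibition: endpoint recorded as highest concentration tested. GI50 is the concentration that inhibits growth by half.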 Active and inactive are the calls of the source. Rule as the data show it: active = GI50 up to about 1.1 µM and inactive = higher.

Assays:
Experiment in all cases: growth of human tumour cells (NCI), 48 h
RPMI-8226 = system: RPMI-8226
HCC 2998 = system: HCC 2998
OVCAR-3 = system: OVCAR-3
NCI-H23 = system: NCI-H23
HCT-15 = system: HCT-15
SK-MEL-2 = system: SK-MEL-2
MDA-MB-231 = system: MDA-MB-231
Malme-3M = system: Malme-3M
BT-549 = system: BT-549
SR = system: SR
MDA-MB-435 = system: MDA-MB-435
SK-MEL-28 = system: SK-MEL-28
IGROV-1 = system: IGROV-1
Hs-578T = system: Hs-578T
MOLT-4 = system: MOLT-4
SK-OV-3 = system: SK-OV-3
U-251 = system: U-251
SW-620 = system: SW-620
HOP-92 = system: HOP-92
HL-60 = system: HL-60

SMILES | GI50 (RPMI-8226) | GI50 (HCC 2998) | GI50 (OVCAR-3) | GI50 (NCI-H23) | GI50 (HCT-15) [µM] | GI50 (SK-MEL-2) | GI50 (MDA-MB-231) | GI50 (Malme-3M) | GI50 (BT-549) | GI50 (SR) | GI50 (MDA-MB-435) | GI50 (SK-MEL-28) | GI50 (IGROV-1) | GI50 (Hs-578T) | GI50 (MOLT-4) | GI50 (SK-OV-3) | GI50 (U-251) | GI50 (SW-620) | GI50 (HOP-92) | GI50 (HL-60)
CSc1c(C#N)c2n(c3ccccc3[n+]2C)c2ncccc12 | 25.4 µM (inactive) | 30.1 µM (inactive) | 22.2 µM (inactive) | 21.5 µM (inactive) | 21.5 | 20.1 µM (inactive) | 18.5 µM (inactive) | 19.4 µM (inactive) | 28.4 µM (inactive) | 23.5 µM (inactive) | 32 µM (inactive) | 21.4 µM (inactive) | 24.7 µM (inactive) | 36.7 µM (inactive) | 92.5 µM (inactive) | 36.1 µM (inactive) | 24 µM (inactive) | 20.2 µM (inactive) | – | –
O=C(OC1C#CCSCC#C/C=C\1)c1cnc2ccccc2n1 (centres undefined) | – | > 100 µM (inactive) | > 100 µM (inactive) | > 100 µM (inactive) | > 100 | > 100 µM (inactive) | > 100 µM (inactive) | > 100 µM (inactive) | > 100 µM (inactive) | 12.2 µM (inactive) | > 100 µM (inactive) | > 100 µM (inactive) | > 100 µM (inactive) | 29.8 µM (inactive) | – | > 100 µM (inactive) | > 100 µM (inactive) | > 100 µM (inactive) | > 100 µM (inactive) | 30.6 µM (inactive)
O=C(Nc1ccc(Cl)cc1)C(=O)C1=C(O)c2ccccc2OC1 | > 100 µM (inactive) | > 100 µM (inactive) | > 100 µM (inactive) | > 100 µM (inactive) | > 100 | > 100 µM (inactive) | > 100 µM (inactive) | 0.665 µM (active) | > 100 µM (inactive) | – | > 100 µM (inactive) | > 100 µM (inactive) | > 100 µM (inactive) | > 100 µM (inactive) | > 100 µM (inactive) | > 100 µM (inactive) | > 100 µM (inactive) | > 100 µM (inactive) | > 100 µM (inactive) | > 100 µM (inactive)
CCOC(=O)c1ccc(C(=O)/C(C(=O)OC(C)(C)C)=C2\CCCN2C)n1C | 69.7 µM (inactive) | > 100 µM (inactive) | 37.8 µM (inactive) | 73.3 µM (inactive) | 95.1 | > 100 µM (inactive) | 80 µM (inactive) | > 100 µM (inactive) | 39.7 µM (inactive) | 31.6 µM (inactive) | 69.7 µM (inactive) | > 100 µM (inactive) | > 100 µM (inactive) | > 100 µM (inactive) | 33.8 µM (inactive) | 16.6 µM (inactive) | > 100 µM (inactive) | > 100 µM (inactive) | – | 27.4 µM (inactive)
